# Measurements taken from article PMC6678097, “Machilin A Inhibits Tumor Growth and Macrophage M2 Polarization Through the Reduction of Lactic Acid” (Cancers, 2019).
# Assays:
# [1] = target: T1, purified recombinant human LDHA (rhLDHA) (Homo sapiens, UniProt P00338); assay: NADH binding assay (LDHA binding to Cibacron Blue 3GA agarose); details: machilin A 10 and 100 μM; NADH positive control
# T1 construct: made in house
# Procedure: An NADH binding assay was performed as described previously. The NADH binding ability of LDHA was determined by measuring the affinity of LDHA to agarose-immobilized Cibacron Blue 3GA, which resembles NADH. Then, 400 ng of purified recombinant human LDHA (rhLDHA) was incubated with NADH or MA, followed by incubation with 30 µL of Cibacron Blue agarose at 4 °C for 2 h. After a washing step with 20 mM Tris-HCl (pH 8.6), LDHA bound to beads was eluted in PBS using a sodium dodecyl sulfate (SDS) gel running buffer and was then subjected to–SDS-polyacrylamide gel electrophoresis (SDS-PAGE) and western blotting. Standardized amounts of protein were used in each reaction.
# LDHA [2] = target: LDHA (Homo sapiens, UniProt P00338); assay: Isothermal titration calorimetry (ITC) of LDHA and NADH; design: Full-length LDHA (residues 1–331) was obtained from cDNA by polymerase chain reaction (PCR); inferred from pET-28a vector and Ni-NTA purification; made in house; host or cells: E. coli BL21 (DE3); details: 25 °C, read-out: apparent KD of binding to LDHA
# Procedure: compounds. The acquisition time was 1.704 sec, relaxation delay was 1.5 sec and 128 transient were collected. Lactate was quantified using Chenomx NMR Suite 7.1 professional with the Chenomx 600 MHz library database (Chenomx Inc., Edmonton, Alberta, Canada, ).
# 1.4. Isothermal Titration Calorimetry
# Isothermal titration calorimetry (ITC) measurements were carried out using MicroCal auto_iTC200 (GE healthcare, Chicago, IL, USA) at 25 °C. The purified LDHA protein was dialyzed in buffer containing 50 mM Tris-HCl (pH 8.0) and 200 mM NaCl at a concentration of 0.1 mM. NADH was solubilized in the same buffer at concentrations of 1 to 2 mM. The NADH was titrated into the LDHA solution onto an ITC200 microcalorimeter cell. The raw data were integrated and normalized using MicroCal Origin 7.0 software (GE healthcare). The determined binding affinity (KA) and enthalpy changes (ΔH) values were used to calculate ΔS from the standard thermodynamic equation.
# For generation of bone marrow-derived macrophage (BMDM), bone marrow cells were extracted from C57BL/6 mice by surgery, and treated with M-CSF (10ng/ml) for 7days. BMDM cells were incubated with the indicated concentration of culture media with MA and lactate or not. The cells were washed with phosphate buffered saline (PBS) and fixed in 3.7% formaldehyde in PBS for 1h. […]
# [3] = target: T2, purified recombinant LDHA (Homo sapiens, UniProt P00338); assay: In vitro LDH activity assay with purified recombinant LDHA; type: biochemical; details: up to a concentration of 1 mM
# T2 construct: made in house
# Procedure: A purification of recombinant LDHA was performed as described previously. LDH activity was determined by measuring the decrease of absorbance at 340 nm due to the oxidation of NADH in 20 mM HEPES-K^+, 0.05% bovine serum albumin (BSA), 20 μM NADH, and 2 mM pyruvate (Sigma-Aldrich, St. Louis, MO, USA) at a pH of 7.2 using a spectrofluorometer (Spectramax M2, Molecular Devices, San Jose, CA, USA; excitation 340 nm; emission 460 nm), as described previously. Ten nanograms of recombinant LDHA protein were used in the in vitro LDH activity assay. One microgram of total protein from cell or tissue lysates was used for intracellular or in vivo LDH assays.
# LDHA [4] = system: LDHA; design: method as in PMID 30850682; details: through reducing its binding to substrate, pyruvate; cited from earlier work
smiles,measurement,setting,value
"NC(=O)C1=CN(C2OC(COP(=O)(O)OP(=O)(O)OCC3OC(n4cnc5c(N)ncnc54)C(O)C3O)C(O)C2O)C=CC1 (centres unmarked) [NADH, 1,4-dihydronicotinamide adenine dinucleotide, reference compound]",LDHA binding to Cibacron Blue Agarose beads (NADH mimic),[1],prohibited LDHA binding
same,Kd,LDHA [2],10 µM
"OCc1ccc2c(c1)OCO2 [piperonyl alcohol, reference compound]",effect on LDHA activity,[3],did not affect LDHA activity
"c1ccc2c(c1)OCO2 [1,3-benzodioxole, reference compound]",effect on LDHA activity,[3],did not affect LDHA activity
"FC(F)(F)c1ccc([Se]c2ccccc2)cc1 [PSTMB, 1-(phenylseleno)-4-(trifluoromethyl)benzene]",effect on LDHA activity,LDHA [4],inhibited LDHA activity
